{"source": "patent US20130101986A1", "about": "“In Vitro Method for obtaining Intrahepatic Fibroblasts Infected with Hepatitis C Virus” (priority 2009, published 2013)", "tested_on": "HCV-JFH1", "assay": "Test of neutralization by interferon alfa of infection of human intrahepatic fibroblasts with HCV-JFH1", "type": "cell-based, hepatitis C virus", "settings": "human intrahepatic fibroblasts preincubated 1 h at 37° C. with 500 U/ml of interferon alfa, infected at 0.1 FFU per cell; FIG. 8", "description": "The intrahepatic fibroblasts were infected one day after being put in culture with HCV-JFH1 to a multiplicity of infection of 0.1 FFU per cell. After incubation overnight at 37° C., the cellular monolayers were washed three times with phosphate-buffered saline and then grown in standard conditions (Aoudjehane et al., Lab. Invest., 88: 973-985, 2008) in DMEM medium (Gibco) 10% FCS in the presence of penicillin and streptomycin (1%) as well as pyruvate (1%).\nIn order to determine whether the HCV genome is capable of replicating in intrahepatic fibroblasts inoculated with HCV-JFH1, the strands of positive RNA (genomic RNA) and the strands of negative RNA (antisense RNA) were quantified. For this purpose, the cells were taken on D3, D6 and D9 post-infection, washed in PBS buffer, then prepared using the “RNeasy minikit” extraction kit (QIAGEN S.A, Courtaboeuf, France) according to the supplier's recommendations, the cells having been lysed in 300 μl of buffer for 3.10^5 cells. The intracellular RNAs were quantified by quantitative RT-PCR specific to each strand as described by Carriere et al. (J. Med. Virol., 79: 155-160, 2007). […]"}
{"substance": "interferon alfa", "values": [{"measurement": "amount of negative-strand HCV RNA", "result": "decrease"}, {"measurement": "amount of positive-strand HCV RNA", "result": "decrease"}]}
